biological target: T1, EGFR LRCS (BaF3-LRCS cell line) (Homo sapiens, UniProt P00533, C797S/L858R); experiment: HTRF Phospho EGFR LRCS assay (cellular); type: cell-based; conditions: BaF3-LRCS cells, 4 hours incubation with compound, Phospho-EGFR HTRF readout
T1 construct: host or cells: BaF3 (BaF3-LRCS engineered line, kept under puromycin)
Protocol: HTRF Phospho EGFR LRCS Assay (Cellular)
BaF3-LRCS cell line were obtained from Crownbio (San Diego, CA, USA). Cells were maintained at 37° C., 5% CO2 in RPMI ATCC (Gibco 31870)+2 mM Glutamine+0.5 μg/ml Puromycin supplemented with 10% fetal bovine serum (FBS) (Gibco).
Cells are transferred as above to Greiner Bio-One, Nr. 784-08 micro-titerplate at 20000 cells/well in 12.5 μl of growth medium/well after the plates had been pre-filled with 12.5 nl of DMSO solutions of the to be tested compounds (in dose response) or DMSO only. After spinning the plates at 300×g for 30 seconds the cells were incubated for 4 hours at 37 C, 5% CO2, 95% humidity. The cells were lysed by adding to the compound mix 4 μl/well of the supplemented lysis buffer (Cis-bio, Phospho-EGFR HTRF kit, 64EG1PEH), followed by incubation for 30 min at room temperature with shaking (400 rpm). The plates were then frozen and stored overnight at −80° C. On the next day and after thawing the plates, 4 μl of a mixture of anti-Phospho-EGFR Cryptate and of anti-Phospho-EGFR-d2 antibody solutions prepared in the supplied detection buffer was added to each well. The lidded plates were then incubated for 4 h at room temperature before reading the fluorescence emission at 616 and 665 nm using an Envision reader (Perkin Elmer). Data was analyzed in similar fashion as above using the normalized ratio of the 665 to 616 signals multiplied by 10000.

T1 sequence (P00533 25-1210 C797S/L858R): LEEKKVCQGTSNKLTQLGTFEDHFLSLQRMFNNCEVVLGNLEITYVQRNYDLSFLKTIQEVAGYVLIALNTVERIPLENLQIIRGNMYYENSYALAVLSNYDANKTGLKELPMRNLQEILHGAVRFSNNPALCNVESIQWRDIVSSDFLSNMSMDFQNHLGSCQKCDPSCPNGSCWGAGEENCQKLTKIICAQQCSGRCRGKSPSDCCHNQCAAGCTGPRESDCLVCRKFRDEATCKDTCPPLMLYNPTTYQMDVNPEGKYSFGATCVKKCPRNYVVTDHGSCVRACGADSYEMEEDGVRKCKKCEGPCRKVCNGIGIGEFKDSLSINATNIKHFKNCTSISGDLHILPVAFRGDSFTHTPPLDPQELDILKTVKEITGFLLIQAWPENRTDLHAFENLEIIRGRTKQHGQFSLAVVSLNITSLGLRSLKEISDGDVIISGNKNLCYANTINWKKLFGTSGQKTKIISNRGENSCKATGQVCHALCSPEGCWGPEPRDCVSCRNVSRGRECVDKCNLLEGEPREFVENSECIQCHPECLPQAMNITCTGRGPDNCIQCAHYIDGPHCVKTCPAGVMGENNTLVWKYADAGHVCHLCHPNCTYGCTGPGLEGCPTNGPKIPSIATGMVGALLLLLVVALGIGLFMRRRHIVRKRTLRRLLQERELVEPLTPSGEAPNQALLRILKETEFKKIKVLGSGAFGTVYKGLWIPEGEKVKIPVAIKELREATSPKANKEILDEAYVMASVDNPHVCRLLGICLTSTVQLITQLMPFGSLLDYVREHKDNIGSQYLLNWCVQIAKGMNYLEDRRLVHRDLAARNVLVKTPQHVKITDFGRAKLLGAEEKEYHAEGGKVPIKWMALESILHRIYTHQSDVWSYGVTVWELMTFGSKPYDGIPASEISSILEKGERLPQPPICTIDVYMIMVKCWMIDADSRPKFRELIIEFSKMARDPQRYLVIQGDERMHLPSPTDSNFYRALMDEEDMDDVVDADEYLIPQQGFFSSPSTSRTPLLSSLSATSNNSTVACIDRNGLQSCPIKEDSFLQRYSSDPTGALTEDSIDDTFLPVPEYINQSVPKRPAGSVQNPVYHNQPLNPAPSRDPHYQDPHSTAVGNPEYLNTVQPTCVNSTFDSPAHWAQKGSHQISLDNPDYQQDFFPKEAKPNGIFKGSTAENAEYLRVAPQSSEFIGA

Row | SMILES | IC50 [nM]
1 | Cc1c(-c2ccc(OCCN3CCC(C(C)O)CC3)cc2)cc(C(F)F)c2cn(C(C(=O)Nc3nccs3)c3ncn4c3C[C@@H](F)C4)nc12 (stereo partly drawn) [Example 22, 2-[4-(Difluoromethyl)-6-[4-[2-[4-(1-hydroxyethyl)-1-piperidyl]ethoxy]phenyl]-7-methyl-indazol-2-yl]-2-[(6R)-6-fluoro-6,7-dihydro-5H-pyrrolo[1,2-c]imidazol-1-yl]-N-thiazol-2-yl-acetamide] | 30
2 | CCN1C[C@H]2CN(c3ccc(-c4cc(C(F)F)c5cn(C(C(=O)Nc6nccs6)c6ncn7c6C[C@@H](F)C7)nc5c4C)cc3)C[C@]2(F)C1 (stereo partly drawn) [Example 25, 2-[6-[4-[(3aR,6aS)-2-Ethyl-3a-fluoro-3,4,6,6a-tetrahydro-1H-pyrrolo[3,4-c]pyrrol-5-yl]phenyl]-4-(difluoromethyl)-7-methyl-indazol-2-yl]-2-[(6R)-6-fluoro-6,7-dihydro-5H-pyrrolo[1,2-c]imidazol-1-yl]-N-thiazol-2-yl-acetamide] | 29
3 | Cc1c(-c2ccc(N3CCOC(CN(C)C)C3)cc2)cc(C(F)F)c2cn(C(C(=O)Nc3nccs3)c3ncn4c3C[C@@H](F)C4)nc12 (stereo partly drawn) [Example 26, 2-[4-(Difluoromethyl)-6-[4-[2-[(dimethylamino)methyl]morpholin-4-yl]phenyl]-7-methyl-indazol-2-yl]-2-[(6R)-6-fluoro-6,7-dihydro-5H-pyrrolo[1,2-c]imidazol-1-yl]-N-thiazol-2-yl-acetamide] | 78
4 | Cc1c(-c2ccc(CCN3CCC(O)CC3)cc2)cc(C(F)F)c2cn(C(C(=O)Nc3nccs3)c3ncn4c3C[C@@H](F)C4)nc12 (stereo partly drawn) [Example 27, 2-[4-(Difluoromethyl)-6-[4-[2-(4-hydroxy-1-piperidyl)ethyl]phenyl]-7-methyl-indazol-2-yl]-2-[(6R)-6-fluoro-6,7-dihydro-5H-pyrrolo[1,2-c]imidazol-1-yl]-N-thiazol-2-yl-acetamide] | 28
5 | Cc1c(-c2ccc(CN(C)C3CCC(O)CC3)cc2)cc(C(F)F)c2cn(C(C(=O)Nc3nccs3)c3ncn4c3C[C@@H](F)C4)nc12 (stereo partly drawn) [Example 28, 2-[4-(Difluoromethyl)-6-[4-[[(4-hydroxycyclohexyl)-methyl-amino]methyl]phenyl]-7-methyl-indazol-2-yl]-2-[(6R)-6-fluoro-6,7-dihydro-5H-pyrrolo[1,2-c]imidazol-1-yl]-N-thiazol-2-yl-acetamide] | 34
6 | Cc1c(-c2ccc(N3C[C@H]4CN(CC(C)F)C[C@H]4C3)cc2)cc(C(F)F)c2cn(C(C(=O)Nc3nccs3)c3ncn4c3C[C@@H](F)C4)nc12 (stereo partly drawn) [Example 29, 2-[6-[4-[(3aR,6aS)-2-(2-Fluoropropyl)-1,3,3a,4,6,6a-hexahydropyrrolo[3,4-c]pyrrol-5-yl]phenyl]-4-(difluoromethyl)-7-methyl-indazol-2-yl]-2-[(6R)-6-fluoro-6,7-dihydro-5H-pyrrolo[1,2-c]imidazol-1-yl]-N-thiazol-2-yl-acetamide] | 28

The next compounds have a lower IC50 than those just listed; values first:

Row | IC50 [nM] | SMILES
7 | 25 | Cc1c(-c2ccc(N3CCC(C)(O)CC3)cc2)cc(C(F)F)c2cn(C(C(=O)Nc3nccs3)c3ncn4c3C[C@@H](F)C4)nc12 (stereo partly drawn) [Example 24, 2-[4-(Difluoromethyl)-6-[4-(4-hydroxy-4-methyl-1-piperidyl)phenyl]-7-methyl-indazol-2-yl]-2-[(6R)-6-fluoro-6,7-dihydro-5H-pyrrolo[1,2-c]imidazol-1-yl]-N-thiazol-2-yl-acetamide]
8 | 21 | Cc1c(-c2ccc(C3CCN(CC(C)F)CC3)cc2)cc(C(F)F)c2cn(C(C(=O)Nc3nccs3)c3ncn4c3C[C@@H](F)C4)nc12 (stereo partly drawn) [Example 23, 2-[4-(Difluoromethyl)-6-[4-[1-(2-fluoropropyl)-4-piperidyl]phenyl]-7-methyl-indazol-2-yl]-2-[(6R)-6-fluoro-6,7-dihydro-5H-pyrrolo[1,2-c]imidazol-1-yl]-N-thiazol-2-yl-acetamide]
9 | 12 | Cc1c(-c2ccc(N3CCOCC3)nc2)cc(C(F)F)c2cn(C(C(=O)Nc3nccs3)c3ncn4c3C[C@@H](F)C4)nc12 (stereo partly drawn) [Example 21, 2-[4-(Difluoromethyl)-7-methyl-6-(6-morpholino-3-pyridyl)indazol-2-yl]-2-[(6R)-6-fluoro-6,7-dihydro-5H-pyrrolo[1,2-c]imidazol-1-yl]-N-thiazol-2-yl-acetamide]

Source: US20240018154A1, “NEW INDAZOLE DERIVATIVES” (Hoffmann-La Roche Inc., priority 2020, published 2024)
